This note sets out measurements from publication PMC6077758, “Gambogic Acid and Its Analogs Inhibit Gap Junctional Intercellular Communication” (Frontiers in Pharmacology, 2018).

Values joined by “and” are separate entries in the source; they are usually repeats but may differ in a detail not shown here. Identical values can stand only once.

The subject of assay [1] is GJIC in LN215 glioma cells. Put plainly: I-YFP GJIC assay in LN215 cells. Format: cell-based, human. As to conditions: for Inhibition of GJIC (in words): treated 10 min before assay, LN215 glioma cells. How it is done:
The I-YFP GJIC assay was conducted as previously reported ([Lee et al., 2015], [2016]). The scheme of the assay is as follows: donor cells express SLC26A4 as an iodide transporter to allow iodide to the influx and donate iodide to acceptor cells through GJs; the acceptor cells express YFP^QL as an iodide sensor, for which the fluorescence is rapidly and sensitively quenched by iodide transferred from donor cells. A 2:1 mixture of the donor (LN215-I) and acceptor (LN215-YFP) cells were plated on 96-well plates at a density of 20,000 cells/well and grown for 24 h. After the medium was removed, the cells were treated with 100 μL of C-solution (10 mM HEPES, pH 7.4, 140 mM NaCl, 10 mM glucose, 5 mM KCl, 1 mM MgCl2, 1 mM CaCl2) containing vehicle or chemicals, as indicated. A POLARstar microplate reader (BMG Labtech, Ortenberg, Germany) equipped with an automated injector was utilized in the kinetic mode to read the YFP fluorescence of a well every 0.4 s for 10 s. An equal volume of I-solution, with the same composition as C-solution, except for the substitution of NaCl with NaI, was injected into the well 1 s after each recording was started. The % YFP quenching and % GJIC activity were calculated from a previously reported formula ([Lee et al., 2016]).
FIGURE 2 Inhibition of GJIC by GA, D-GA, and T-GA. I-YFP GJIC assay (see Materials and Methods) was conducted using LN215-I and LN215-YFP cells. The vehicle, GA (A), D-GA (B), or T-GA (C) was diluted in C-solution and applied to cells at the concentrations indicated above for 10 min before the GJIC assay. The mean % of GJIC activity ± SD of three independent experiments is presented as bar graphs.

The next assay addresses T1, Cx30 (Homo sapiens, UniProt O95452).
T1 construct: expressed in transfected cells; host or cells: GJA1-null LN215 human glioma cells, lentiviral transduction (pLVX-CIBla-Cx30)
Briefly: I-YFP GJIC assay, LN215-Cx30 cells. The assay is classed as cell-based. The conditions noted are these: 10 min treatment, best fit value ± standard error; read-out: IC50 for inhibition of Cx30-GJIC. How it is done:
(§1) GJA1-null LN215 cells were plated on a 24-well plate at 30% confluency, cultivated for 24 h, and transduced with 200 μL of conditioned medium containing lentivirus mixed with an equal volume of fresh growth medium for 15 h. The growth medium was refreshed followed by incubation for a further 72 h before selection with 2 μg/mL puromycin for one week.
(§2) The I-YFP GJIC assay was conducted as previously reported ([Lee et al., 2015], [2016]). The scheme of the assay is as follows: donor cells express SLC26A4 as an iodide transporter to allow iodide to the influx and donate iodide to acceptor cells through GJs; the acceptor cells express YFP^QL as an iodide sensor, for which the fluorescence is rapidly and sensitively quenched by iodide transferred from donor cells. […] A POLARstar microplate reader (BMG Labtech, Ortenberg, Germany) equipped with an automated injector was utilized in the kinetic mode to read the YFP fluorescence of a well every 0.4 s for 10 s. […] The % YFP quenching and % GJIC activity were calculated from a previously reported formula ([Lee et al., 2016]). […]
(§3) FIGURE 10 IC50 values of D-GA and CBX inhibition of GJs composed of Cx43, Cx40, or Cx30. […] The percentage of GJIC inhibition was calculated and plotted against the log [compound] […] The IC50 values were calculated using GraphPad Prism 5.

In a further assay the target is T2, Cx40 (Homo sapiens, UniProt P36382).
T2 construct: expressed in transfected cells; host or cells: GJA1-null LN215 human glioma cells, lentiviral transduction (pLVX-EIBla-Cx40)
Put plainly: I-YFP GJIC assay, LN215-Cx40 cells. The assay is classed as cell-based. The conditions noted are these: 10 min treatment, best fit value ± standard error; read-out: IC50 for inhibition of Cx40-GJIC. The method, then:
as §1, §2, §3

The target of assay [2] is T3, Cx43 (Homo sapiens, UniProt P17302).
T3 construct: expressed in transfected cells; host or cells: GJA1-null LN215 human glioma cells, lentiviral transduction (pLVX-CIBla-Cx43)
Put plainly: I-YFP GJIC assay, LN215-Cx43 cells. The assay is classed as cell-based. As to conditions: 10 min treatment, best fit value ± standard error; read-out: IC50 for inhibition of Cx43-GJIC. How it is done: as §1, §2, §3

In a further assay the test system is LN215 cells. Briefly: Measurement of DCFH oxidation (ROS). As to conditions: D-GA 20 μM 10 min, H2O2 30 min. Format: cell-based, human. How it is done: looseness1 LN215 cells were grown to confluency on 96-well plates, washed three times with C-solution, and treated with 100 μL C-solution containing 10 μM 2′–7′-dichlorodihydrofluorescein diacetate (DCFH-DA, Sigma-Aldrich) for 1 h; subsequently, the DCF fluorescence was measured. Chemical treatment was conducted during the DCFH-DA loading period. The DCF fluorescence value, which reflects cellular oxidative stress, was measured using a POLARstar microplate reader using excitation and emission wavelengths of 495 and 520, respectively.
FIGURE 7 No ROS generation results from D-GA treatment in LN215 cells. LN215 cells were plated in 96-well plates and grown to full confluency. After washing with C-solution, the cells were loaded with 10 μM DCFH-DA diluted in C-solution for 1 h before fluorometry. H2O2 or D-GA was added after 30 min or 10 min before the measurement, respectively. The data are the mean ± SD (n = 3). ^∗p < 0.05 (Student’s t-test).

The test system of assay [3] is Cx43. Format: cell-based, human. The conditions noted are these: LN215-Cx43 cells. How it is done: To assess the cellular level and S368 phosphorylation status of Cx43 on cell surfaces and in whole lysates, LN215-Cx43 cells on 100 mm culture plates were biotinylated using EZ-Link^TM Sulfo-NHS-SS-Biotin (ThermoFisher Scientific, Cat. No. 21331) according to the manufacturer’s instructions followed by lysis with PBS containing 1% Triton X-100, 1x protease inhibitor cocktail (Roche), and 1x phosphatase inhibitor cocktail (Pierce). Protein concentration was determined using a BCA assay. To collect surface proteins, 500 μg of protein was bound to 20 μL of NeutrAvidin^TM Agarose (Pierce) followed by elution with 2x Laemmli sample buffer. The surface samples and 20 μg of whole lysates were analyzed using immunoblotting as previously described ([Lee et al., 2016]). To confirm the knockout of GJA1, whole lysates were prepared without surface biotinylation. […] The protein band densities were measured using ImageJ software.
FIGURE 5 Effect of D-GA treatment on surface expression and S368 phosphorylation of Cx43. […] The images before cropping are also presented in Supplementary Figures 1A–E. The relative phospho-S368 Cx43 band intensity, divided by the total Cx43 band intensity, is reflective of Cx43 S368-phosphorylation and was calculated and presented as bar graphs (B). […]

The target of the next assay is T4, SLC26A4 (Homo sapiens, UniProt O43511).
T4 construct: expressed in transfected cells
T4 sequence (O43511 1-780): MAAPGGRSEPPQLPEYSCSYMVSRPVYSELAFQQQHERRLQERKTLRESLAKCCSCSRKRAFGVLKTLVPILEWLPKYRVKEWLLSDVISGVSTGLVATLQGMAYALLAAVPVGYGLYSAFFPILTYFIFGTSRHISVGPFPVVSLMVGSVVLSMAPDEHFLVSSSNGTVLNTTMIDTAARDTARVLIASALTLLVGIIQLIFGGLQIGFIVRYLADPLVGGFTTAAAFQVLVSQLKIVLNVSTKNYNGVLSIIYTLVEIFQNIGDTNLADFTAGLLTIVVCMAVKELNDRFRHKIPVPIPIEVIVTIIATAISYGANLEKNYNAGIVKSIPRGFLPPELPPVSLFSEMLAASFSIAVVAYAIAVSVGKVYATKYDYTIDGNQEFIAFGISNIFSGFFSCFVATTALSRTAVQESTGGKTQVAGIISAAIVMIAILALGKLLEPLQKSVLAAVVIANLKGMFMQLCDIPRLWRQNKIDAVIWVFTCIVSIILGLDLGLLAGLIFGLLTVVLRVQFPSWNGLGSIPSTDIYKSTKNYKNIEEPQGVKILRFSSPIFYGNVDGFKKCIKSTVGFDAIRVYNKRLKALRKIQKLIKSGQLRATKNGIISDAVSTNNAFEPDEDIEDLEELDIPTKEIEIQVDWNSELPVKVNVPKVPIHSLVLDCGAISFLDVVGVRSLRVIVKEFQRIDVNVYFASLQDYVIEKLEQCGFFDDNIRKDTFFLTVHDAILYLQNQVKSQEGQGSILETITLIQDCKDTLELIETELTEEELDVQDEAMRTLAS
Briefly: SLC26A4 inhibition (Supplementary Figure 4). Format: cell-based.

T2 sequence (P36382 whole entry): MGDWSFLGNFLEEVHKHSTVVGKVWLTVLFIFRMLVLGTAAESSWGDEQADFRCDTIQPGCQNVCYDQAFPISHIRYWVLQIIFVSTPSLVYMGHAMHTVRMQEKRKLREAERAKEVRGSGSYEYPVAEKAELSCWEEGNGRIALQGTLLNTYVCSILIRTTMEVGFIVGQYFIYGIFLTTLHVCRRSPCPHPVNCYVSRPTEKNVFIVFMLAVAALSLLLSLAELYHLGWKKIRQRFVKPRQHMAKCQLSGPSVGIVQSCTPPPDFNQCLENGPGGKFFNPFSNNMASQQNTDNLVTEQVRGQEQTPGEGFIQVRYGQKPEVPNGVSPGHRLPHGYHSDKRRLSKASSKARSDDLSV
T1 sequence (O95452 whole entry): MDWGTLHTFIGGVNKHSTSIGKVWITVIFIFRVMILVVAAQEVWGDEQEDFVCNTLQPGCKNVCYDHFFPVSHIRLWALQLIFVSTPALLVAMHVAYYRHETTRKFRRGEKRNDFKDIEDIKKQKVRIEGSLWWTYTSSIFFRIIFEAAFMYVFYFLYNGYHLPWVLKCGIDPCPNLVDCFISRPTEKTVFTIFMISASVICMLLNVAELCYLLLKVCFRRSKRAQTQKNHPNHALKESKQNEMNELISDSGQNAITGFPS
T3 sequence (P17302 2-382 limits assumed): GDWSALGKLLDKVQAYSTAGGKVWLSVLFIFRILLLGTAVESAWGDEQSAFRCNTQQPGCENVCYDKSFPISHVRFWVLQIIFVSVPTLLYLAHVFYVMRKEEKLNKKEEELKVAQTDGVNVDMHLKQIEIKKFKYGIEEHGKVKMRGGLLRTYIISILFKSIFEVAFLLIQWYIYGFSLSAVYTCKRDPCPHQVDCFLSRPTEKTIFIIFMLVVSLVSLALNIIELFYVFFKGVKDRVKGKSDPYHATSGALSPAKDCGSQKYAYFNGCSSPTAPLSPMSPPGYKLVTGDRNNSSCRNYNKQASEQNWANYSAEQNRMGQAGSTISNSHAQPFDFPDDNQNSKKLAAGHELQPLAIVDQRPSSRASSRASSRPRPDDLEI

As for `CC(=O)OCOC(=O)CN(CC(=O)OCOC(C)=O)c1ccccc1OCCOc1ccccc1N(CC(=O)OCOC(C)=O)CC(=O)OCOC(C)=O` [BAPTA-AM, reference compound], the “Effect of pre-treatment on GJIC activity” value in assay [1] (5 μM BAPTA-AM 30 min, control or 20 μM D-GA-treated LN215 cells) is recorded as “did not change the GJIC activity”.

Regarding `CC1(C)[C@@H](OC(=O)CCC(=O)O)CC[C@]2(C)[C@H]3C(=O)C=C4[C@@H]5C[C@@](C)(C(=O)O)CC[C@]5(C)CC[C@@]4(C)[C@]3(C)CC[C@@H]12` [CBX, carbenoxolone, reference compound], the IC50 at Cx30 was 748.2 ± 1.3 µM; on Cx40, 105 µM; at Cx43 [2], 5.6 ± 1.1 µM.

As to `CC(C)=CCCC1(C)C=Cc2c(O)c3c(c(CC=C(C)C)c2O1)OC12C(=CC4CC1C(C)(C)OC2(C/C=C(/C)C(=O)O)C4O)C3=O` [D-GA, dihydrogambogic acid], the IC50 on Cx30 came out at 81.1 ± 1.1 µM; at Cx40, 5.1 µM; at Cx43 [2], 13.1 ± 1.1 µM. For the same compound, the “% GJIC activity” value in assay [1] (20 μM for 10 min, LN215-I and LN215-YFP cells, mean ± SD) is 18.1% ± 15.7% and 17.6% ± 7.3%. In assay [1] (20 μM for 10 min, washed, further 20 min incubation in absence of compound), the “% GJIC activity after washing” value is 91.4% ± 2.5%. The “Inhibition of GJIC (in words)” value in assay [1] is on record as “inhibited by these compounds in a dose-dependent manner”. In addition, in the assay with LN215 cells, the “DCF fluorescence (cellular ROS production)” value is “did not increase DCF fluorescence”. Further, the “S368 phosphorylation of surface Cx43 vs vehicle” value in the assay with Cx43 [3] (10 min, 20 μM D-GA or 100 ng/mL PMA + 50 ng/mL EGF) was “did not increase S368 phosphorylation”. In addition, the “Cx43 level on cell surfaces” value with Cx43 [3] (20 μM D-GA 10 min or 1 μg/mL BFA + 10 μg/mL CHX 6 h) was “increased threefold”.

Consider `CC(C)=CCC[C@]1(C)C=Cc2c(O)c3c(c(CC=C(C)C)c2O1)O[C@]12C(=C[C@@H]4C[C@H]1C(C)(C)O[C@@]2(C/C=C(/C)C(=O)O)C4=O)C3=O` [GA, Gambogic acid], for which the “Inhibition of SLC26A4” value at SLC26A4 was “did not inhibit SLC26A4”. Besides, the “Inhibition of GJIC (in words)” value in assay [1] is reported as “inhibited by these compounds in a dose-dependent manner”.

In the case of `OO` [H2O2, reference compound], the “DCF fluorescence (cellular ROS production)” value with LN215 cells is given as “dose-dependent increase”.

With `Cc1[nH]nc(-c2cc(S(=O)(=O)NC3CCCc4ccccc43)c(C)s2)c1C` (stereo not drawn) [PDSinh-C01, reference compound], the “Inhibition of SLC26A4” value on SLC26A4 was “potently inhibited”.

Consider `CC(C)=CCCC1(C)C=Cc2c(O)c3c(c(CC=C(C)C)c2O1)OC12C(CC4CC1C(C)(C)OC2(CC=C(C)C(=O)O)C4O)C3=O` (stereo not drawn) [T-GA, tetrahydrogambogic acid], for which the “Inhibition of GJIC (in words)” value in assay [1] is given as “inhibited by these compounds in a dose-dependent manner”.
